# Where “and” joins values, the source holds several entries; their conditions need not be identical. Equal values may be shown once.
# Assay: Plasma levels and pharmacokinetics of intravenous ITPP
# [1] = individual patients, cohort 1 (1866 mg/m2)
# [2] = individual patients, cohort 2 (3732 mg/m2)
structure (smiles),measurement,setting,value
"O=P1(O)OC2C3OP(=O)(O)OP(=O)(O)OC3C3OP(=O)(O)OP(=O)(O)OC3C2OP(=O)(O)O1 (centres unmarked) [ITPP, Myo-inositol trispyrophosphate]",ITPP plasma levels: Concentration,"cohort 2, patient 7, day 2, hour 0, sample 8_2_1",0 µg/mL
same,"ITPP plasma levels, Concentration","cohort 2, patient 7, day 2, hour 9",98.6 µg/mL
same,"ITPP plasma levels, Concentration","cohort 2, patient 7, day 3, hour 0",0 µg/mL
same,"ITPP plasma levels, Concentration","cohort 2, patient 7, day 3, hour 9",93.7 µg/mL
same,AUC,"cohort 3, 5600 mg/m2",1168.7 µg·h/mL
same,AUMC,"cohort 3, 5600 mg/m2",6445.9 h2*mg/L
same,CL,"cohort 3, 5600 mg/m2",4.4 L/h
same,Clast,"cohort 3, 5600 mg/m2",59.5 µg/mL
same,Cmax,"cohort 3, 5600 mg/m2",153.4 µg/mL
same,Cmin,"cohort 3, 5600 mg/m2",0 ng/mL
same,Elimination rate λz,"cohort 3, 5600 mg/m2",0.5 h⁻¹
same,Half life/T0.5,"cohort 3, 5600 mg/m2",1.4 h
same,MRT,"cohort 3, 5600 mg/m2",1.5 h
same,Tlast,"cohort 3, 5600 mg/m2",10.0 h
same,Tmax,"cohort 3, 5600 mg/m2",6.0 h
same,VSS,"cohort 3, 5600 mg/m2",9.2 L
same,AUC,"cohort 4, 7000 mg/m2",1649.5 µg·h/mL
same,AUMC,"cohort 4, 7000 mg/m2",9421.8 h2*mg/L
same,CL,"cohort 4, 7000 mg/m2",3.1 L/h
same,Clast,"cohort 4, 7000 mg/m2",127.5 µg/mL
same,Cmax,"cohort 4, 7000 mg/m2",228.0 µg/mL
same,Cmin,"cohort 4, 7000 mg/m2",0 ng/mL
same,Elimination rate λz,"cohort 4, 7000 mg/m2",0.2 h⁻¹
same,Half life/T0.5,"cohort 4, 7000 mg/m2",3.3 h
same,MRT,"cohort 4, 7000 mg/m2",1.7 h
same,Tlast,"cohort 4, 7000 mg/m2",10.0 h
same,Tmax,"cohort 4, 7000 mg/m2",6.0 h
same,VSS,"cohort 4, 7000 mg/m2",12.8 L
same,AUC,"cohort 5, 8750 mg/m2",1850.5 µg·h/mL
same,AUMC,"cohort 5, 8750 mg/m2",10396.4 h2*mg/L
same,CL,"cohort 5, 8750 mg/m2",4.0 L/h
same,Clast,"cohort 5, 8750 mg/m2",116.8 µg/mL
same,Cmax,"cohort 5, 8750 mg/m2",257.8 µg/mL
same,Cmin,"cohort 5, 8750 mg/m2",0 ng/mL
same,Elimination rate λz,"cohort 5, 8750 mg/m2",0.3 h⁻¹
same,Half life/T0.5,"cohort 5, 8750 mg/m2",2.1 h
same,MRT,"cohort 5, 8750 mg/m2",1.6 h
same,Tlast,"cohort 5, 8750 mg/m2",10.0 h
same,Tmax,"cohort 5, 8750 mg/m2",6.0 h
same,VSS,"cohort 5, 8750 mg/m2",11.1 L
same,AUC,"cohort 6, 10500 mg/m2",2439.2 µg·h/mL
same,AUMC,"cohort 6, 10500 mg/m2",13886.7 h2*mg/L
same,CL,"cohort 6, 10500 mg/m2",3.3 L/h
same,Clast,"cohort 6, 10500 mg/m2",186.4 µg/mL
same,Cmax,"cohort 6, 10500 mg/m2",313.4 µg/mL
same,Cmin,"cohort 6, 10500 mg/m2",0 ng/mL
same,Elimination rate λz,"cohort 6, 10500 mg/m2",0.3 h⁻¹
same,Half life/T0.5,"cohort 6, 10500 mg/m2",2.6 h
same,MRT,"cohort 6, 10500 mg/m2",1.7 h
same,Tlast,"cohort 6, 10500 mg/m2",10.0 h
same,Tmax,"cohort 6, 10500 mg/m2",6.0 h
same,VSS,"cohort 6, 10500 mg/m2",11.7 L
same,AUC,"cohort 7, 12390 mg/m2",2457.2 µg·h/mL
same,AUMC,"cohort 7, 12390 mg/m2",14095.2 h2*mg/L
same,CL,"cohort 7, 12390 mg/m2",4.4 L/h
same,Clast,"cohort 7, 12390 mg/m2",149.4 µg/mL
same,Cmax,"cohort 7, 12390 mg/m2",353.6 µg/mL
same,Cmin,"cohort 7, 12390 mg/m2",0 ng/mL
same,Elimination rate λz,"cohort 7, 12390 mg/m2",0.4 h⁻¹
same,Half life/T0.5,"cohort 7, 12390 mg/m2",1.7 h
same,MRT,"cohort 7, 12390 mg/m2",1.7 h
same,Tlast,"cohort 7, 12390 mg/m2",10.0 h
same,Tmax,"cohort 7, 12390 mg/m2",6.0 h
same,VSS,"cohort 7, 12390 mg/m2",11.4 L
same,AUC,"cohort 8, 14500 mg/m2",2864.1 µg·h/mL
same,AUMC,"cohort 8, 14500 mg/m2",16280.4 h2*mg/L
same,CL,"cohort 8, 14500 mg/m2",4.4 L/h
same,Clast,"cohort 8, 14500 mg/m2",166.0 µg/mL
same,Cmax,"cohort 8, 14500 mg/m2",439.2 µg/mL
same,Cmin,"cohort 8, 14500 mg/m2",0 ng/mL
same,Elimination rate λz,"cohort 8, 14500 mg/m2",0.4 h⁻¹
same,Half life/T0.5,"cohort 8, 14500 mg/m2",1.8 h
same,MRT,"cohort 8, 14500 mg/m2",1.7 h
same,Tlast,"cohort 8, 14500 mg/m2",10.0 h
same,Tmax,"cohort 8, 14500 mg/m2",6.0 h
same,VSS,"cohort 8, 14500 mg/m2",11.4 L
same,AUCTmax,[1],338.2 µg·h/mL and 372.1 µg·h/mL and 311.3 µg·h/mL and 349.1 µg·h/mL
same,AUC∞,[1],366.8 µg·h/mL
same,AUC∞ / Dose,[1],0.2 mg·h/L/mg
same,AUMCTmax,[1],1863.8 h2*mg/L and 2050.4 h2*mg/L and 1825.7 h2*mg/L and 1904.2 h2*mg/L
same,AUMC∞,[1],2201.9 h2*mg/L
same,CLO,[1],5.1 L/h
same,Clast,[1],15.7 µg/mL and 46.6 µg/mL and 22.8 µg/mL and 33.9 µg/mL
same,Cmax,[1],45.8 µg/mL and 54.7 µg/mL and 55.3 µg/mL and 42.2 µg/mL
same,Cmax / Dose,[1],0.0 mg/L/mg
same,Cmin,[1],0 ng/mL
same,Elimination rate λz,[1],0.5 h⁻¹
same,Half-life / T0.5,[1],1.3 h
same,MRTTmax,[1],1.5 h (3×) and 1.9 h
same,MRT∞,[1],2.0 h
same,Tlast,[1],10 h (3×) and 9 h
same,Tmax,[1],6.0 h (3×) and 8.5 h
same,VSSO,[1],10.2 L
same,VZO,[1],9.3 L
same,AUCTmax,[2],745.9 µg·h/mL and 761.5 µg·h/mL and 1032.3 µg·h/mL
same,AUC∞,[2],826.4 µg·h/mL and 896.6 µg·h/mL and 1215.3 µg·h/mL
same,AUC∞ / Dose,[2],0.2 h*mg/L/mg (2×) and 0.3 h*mg/L/mg
same,AUMCTmax,[2],4278.4 h2*mg/L and 4442.2 h2*mg/L and 6030.7 h2*mg/L
same,AUMC∞,[2],5242.1 h2*mg/L and 6142.5 h2*mg/L and 8341.9 h2*mg/L
same,CLO,[2],4.5 L/h and 4.2 L/h and 3.1 L/h
same,Clast,[2],40.6 µg/mL and 52.1 µg/mL and 69.7 µg/mL
same,Cmax,[2],106.3 µg/mL and 106.7 µg/mL and 148.7 µg/mL
same,Cmax / Dose,[2],0.0 mg/L/mg
same,Cmin,[2],0 ng/mL
same,Elimination rate λz,[2],0.5 /h and 0.4 /h (2×)
same,Half-life / T0.5,[2],1.4 h and 1.8 h (2×)
same,MRTTmax,[2],1.7 h and 1.8 h (2×)
same,MRT∞,[2],2.3 h and 2.9 h (2×)
same,Tlast,[2],10 h
same,Tmax,[2],6.0 h

# Source: publication PMC8217170, “Phase Ib dose-escalation study of the hypoxia-modifier Myo-inositol trispyrophosphate in patients with hepatopancreatobiliary tumors” (Nature Communications, 2021)
